From patent US20260202298A1, “HIGH-THROUGHPUT MEASUREMENT OF P[…] PARTICLE COUNTS, DISTRIBUTIONS, AND COMPOSITION” (priority 2021, published 2026)

How the values were obtained:
[1] = test system: A/PR8/34 or A/Ud/72 (with X31 or A/Aichi/68 HA) IAV; assay type: cell-based, influenza A virus in human lung epithelial cell line Calu3; details: FIG. 12B, PR8 and XUd viruses
[2] = test system: XUd (WT1) or PR8 (WT2) influenza viruses; assay type: cell-based, influenza virus in MDCK cells; details: at higher concentrations

## COC(=O)OCOc1c2n(ccc1=O)N([C@@H]1c3ccccc3SCc3c1ccc(F)c3F)[C@@H]1COCCN1C2=O [baloxavir, baloxavir marboxil]
[1]
  virion yield vs. fraction of filamentous particles produced: lower virion yields are associated with increased fraction of filamentous particles produced

## CCOC(=O)C1=C[C@@H](OC(CC)CC)[C@H](NC(C)=O)[C@@H](N)C1 [oseltamivir]
[2]
  effect on virion yield: reduces virion yield
  size of individual virus particles: remains enriched in spherical particles
  virion aggregation: induces virion aggregation
